# Measured values published in the supplement of paper PMC10307832.
# How the values were obtained:
# Experiment in all cases: relative viability (nuclei count vs DMSO), 5 days (fraction); higher = more cells survive
# [1] = compound: Cc1ccc(NC(=O)c2ccc(CN3CCN(C)CC3)cc2)cc1Nc1nccc(-c2cccnc2)n1 [Imatinib]
# Method in brief: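 Viability was defined as treated-well nuclei divided by vehicle-well nuclei, with the median taken over replicate plates. Cells from lung cancer lines sat overnight at 37 °C in 1536-well plates, received five √10-spaced library-drug doses by pinning on vehicle-anchored plates, and grew 5 days without medium change before one-step fixation, permeabilisation and Hoechst staining, 4× imaging and MetaXpress nuclear counts. Only plates with control CV under 25% and at least one doubling were kept.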
# [2] = compound: Cc1ccc(NC(=O)c2ccc(CN3CCN(C)CC3)cc2)cc1Nc1nccc(-c2cccnc2)n1 [Imatinib] + CC1(C)CCC(c2ccc(Cl)cc2)=C(CN2CCN(c3ccc(C(=O)NS(=O)(=O)c4ccc(N[C@H](CCN5CCOCC5)CSc5ccccc5)c(S(=O)(=O)C(F)(F)F)c4)cc3)CC2)C1 [Navitoclax] (partner 0.5 µM)
# Method in brief: (§1)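 Lung cancer cell lines, seeded in 1536-well plates, were treated the following day by pin tool with a single drug or with five library-drug doses (not always all listed) in √10 steps on top of a fixed anchor-drug dose. Cells were fixed and nuclei stained in one step after 5 days, and nuclei were counted. Relative viability is the nuclei count for treated wells divided by that for vehicle wells, reported as medians of duplicate plates.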
# [3] = compound: Cc1ccc(NC(=O)c2ccc(CN3CCN(C)CC3)cc2)cc1Nc1nccc(-c2cccnc2)n1 [Imatinib] + CS(=O)(=O)CCNCc1ccc(-c2ccc3ncnc(Nc4ccc(OCc5cccc(F)c5)c(Cl)c4)c3c2)o1 [Lapatinib] (partner 2 µM)
# Method in brief: as §1
# [4] = compound: Cc1ccc(NC(=O)c2ccc(CN3CCN(C)CC3)cc2)cc1Nc1nccc(-c2cccnc2)n1 [Imatinib] + CS(=O)(=O)N1CCN(Cc2cc3nc(-c4cccc5[nH]ncc45)nc(N4CCOCC4)c3s2)CC1 [Pictilisib] (partner 1 µM)
# Method in brief: as §1
# [5] = compound: Cc1ccc(NC(=O)c2ccc(CN3CCN(C)CC3)cc2)cc1Nc1nccc(-c2cccnc2)n1 [Imatinib] + C[C@]1(O)C[C@@H](c2nc(-c3ccc4ccc(-c5ccccc5)nc4c3)c3c(N)nccn32)C1 [Linsitinib] (partner 1 µM)
# Method in brief: as §1
# [6] = compound: Cc1ccc(NC(=O)c2ccc(CN3CCN(C)CC3)cc2)cc1Nc1nccc(-c2cccnc2)n1 [Imatinib] + Cc1nc(NC(=O)N2CCC[C@H]2C(N)=O)sc1-c1ccnc(C(C)(C)C(F)(F)F)c1 [Alpelisib] (partner 2 µM)
# Method in brief: as §1
# [7] = compound: Cc1ccc(NC(=O)c2ccc(CN3CCN(C)CC3)cc2)cc1Nc1nccc(-c2cccnc2)n1 [Imatinib] + N=C(N)NC(=N)NCCc1ccccc1 [Phenformin] (partner 250 µM)
# Method in brief: as §1
# [8] = compound: Cc1ccc(NC(=O)c2ccc(CN3CCN(C)CC3)cc2)cc1Nc1nccc(-c2cccnc2)n1 [Imatinib] + Nc1ncn([C@H]2C[C@H](O)[C@@H](CO)O2)c(=O)n1 [Decitabine] (partner 2 µM)
# Method in brief: as §1
# [9] = compound: Cc1ccc(NC(=O)c2ccc(CN3CCN(C)CC3)cc2)cc1Nc1nccc(-c2cccnc2)n1 [Imatinib] + O=C(c1cc(Cc2n[nH]c(=O)c3ccccc23)ccc1F)N1CCN(C(=O)C2CC2)CC1 [Olaparib] (partner 8 µM)
# Method in brief: as §1
# [10] = compound: Cc1ccc(NC(=O)c2ccc(CN3CCN(C)CC3)cc2)cc1Nc1nccc(-c2cccnc2)n1 [Imatinib] + CC(C)C[C@H](NC(=O)[C@H](Cc1ccccc1)NC(=O)c1cnccn1)B(O)O [Bortezomib] (partner 0.002 µM)
# Method in brief: as §1
# [11] = compound: Cc1ccc(NC(=O)c2ccc(CN3CCN(C)CC3)cc2)cc1Nc1nccc(-c2cccnc2)n1 [Imatinib] + COc1cc2c(Oc3ccc(NC(=O)C4(C(=O)Nc5ccc(F)cc5)CC4)cc3F)ccnc2cc1OCCCN1CCOCC1 [Foretinib] (partner 0.25 µM)
# Method in brief: as §1
# [12] = compound: Cc1ccc(NC(=O)c2ccc(CN3CCN(C)CC3)cc2)cc1Nc1nccc(-c2cccnc2)n1 [Imatinib] + C[C@@H](Oc1cc(-c2cnn(C3CCNCC3)c2)cnc1N)c1c(Cl)ccc(F)c1Cl [Crizotinib] (partner 1 µM)
# Method in brief: as §1
# [13] = compound: Cc1ccc(NC(=O)c2ccc(CN3CCN(C)CC3)cc2)cc1Nc1nccc(-c2cccnc2)n1 [Imatinib] + CCNC(=O)c1noc(-c2cc(C(C)C)c(O)cc2O)c1-c1ccc(CN2CCOCC2)cc1 [Luminespib] (partner 0.01 µM)
# Method in brief: as §1
# [14] = compound: Cc1ccc(NC(=O)c2ccc(CN3CCN(C)CC3)cc2)cc1Nc1nccc(-c2cccnc2)n1 [Imatinib] + COc1cccc2cc(-c3nc([C@H]4CC[C@H](C(=O)O)CC4)n4ncnc(N)c34)[nH]c12 [OSI-027] (partner 0.5 µM)
# Method in brief: as §1
# [15] = compound: Cc1ccc(NC(=O)c2ccc(CN3CCN(C)CC3)cc2)cc1Nc1nccc(-c2cccnc2)n1 [Imatinib] + Cc1cc(Nc2cc(N3CCN(C)CC3)nc(Sc3ccc(NC(=O)C4CC4)cc3)n2)n[nH]1 [Tozasertib] (partner 0.1 µM)
# Method in brief: as §1
cell line,measurement,setting,value
A549,relative viability,[1]; 0.02 µM,1
same,relative viability,[1]; 0.06325 µM,0.846
same,relative viability,[1]; 0.2 µM,1.19
same,relative viability,[1]; 0.6325 µM,0.973
same,relative viability,[1]; 2 µM,0.99
same,relative viability,[2]; first compound 0.02 µM,1.31
same,relative viability,[2]; first compound 0.06325 µM,1.53
same,relative viability,[2]; first compound 0.2 µM,1.55
same,relative viability,[2]; first compound 0.6325 µM,1.18
same,relative viability,[2]; first compound 2 µM,1.17
same,relative viability,[3]; first compound 0.02 µM,1.09
same,relative viability,[3]; first compound 0.06325 µM,1.13
same,relative viability,[3]; first compound 0.2 µM,1.11
same,relative viability,[3]; first compound 0.6325 µM,1.07
same,relative viability,[3]; first compound 2 µM,0.99
same,relative viability,[4]; first compound 0.02 µM,0.729
same,relative viability,[4]; first compound 0.06325 µM,0.703
same,relative viability,[4]; first compound 0.2 µM,0.545
same,relative viability,[4]; first compound 0.6325 µM,0.553
same,relative viability,[4]; first compound 2 µM,0.466
same,relative viability,[5]; first compound 0.02 µM,0.673
same,relative viability,[5]; first compound 0.2 µM,0.636
same,relative viability,[5]; first compound 0.6325 µM,0.699
same,relative viability,[5]; first compound 2 µM,0.753
same,relative viability,[6]; first compound 0.02 µM,0.793
same,relative viability,[6]; first compound 0.06325 µM,0.841
same,relative viability,[6]; first compound 0.6325 µM,0.722
same,relative viability,[6]; first compound 2 µM,0.949
same,relative viability,[7]; first compound 0.02 µM,0.178
same,relative viability,[7]; first compound 0.2 µM,0.154
same,relative viability,[7]; first compound 0.6325 µM,0.159
same,relative viability,[7]; first compound 2 µM,0.135
same,relative viability,[8]; first compound 0.02 µM,0.287
same,relative viability,[8]; first compound 0.2 µM,0.355
same,relative viability,[8]; first compound 0.6325 µM,0.32
same,relative viability,[8]; first compound 2 µM,0.222
same,relative viability,[9]; first compound 0.02 µM,0.472
same,relative viability,[9]; first compound 0.2 µM,0.299
same,relative viability,[9]; first compound 0.6325 µM,0.307
same,relative viability,[9]; first compound 2 µM,0.42
Calu-6,relative viability,[1]; 0.02 µM,1.08
same,relative viability,[1]; 0.06325 µM,1.08
same,relative viability,[1]; 0.2 µM,1.16
same,relative viability,[1]; 0.6325 µM,1.06
same,relative viability,[1]; 2 µM,1.02
same,relative viability,[10]; first compound 0.02 µM,1.13
same,relative viability,[10]; first compound 0.06325 µM,1.06
same,relative viability,[10]; first compound 0.2 µM,1.01
same,relative viability,[10]; first compound 0.6325 µM,1.08
same,relative viability,[10]; first compound 2 µM,0.867
same,relative viability,[2]; first compound 0.02 µM,0.976
same,relative viability,[2]; first compound 0.06325 µM,0.804
same,relative viability,[2]; first compound 0.2 µM,0.777
same,relative viability,[2]; first compound 0.6325 µM,0.85
same,relative viability,[2]; first compound 2 µM,0.814
same,relative viability,[11]; first compound 0.02 µM,1.08
same,relative viability,[11]; first compound 0.06325 µM,1.01
same,relative viability,[11]; first compound 0.2 µM,1.01
same,relative viability,[11]; first compound 0.6325 µM,0.925
same,relative viability,[11]; first compound 2 µM,0.891
same,relative viability,[3]; first compound 0.02 µM,1.24
same,relative viability,[3]; first compound 0.06325 µM,1.23
same,relative viability,[3]; first compound 0.2 µM,1.27
same,relative viability,[3]; first compound 0.6325 µM,1.16
same,relative viability,[3]; first compound 2 µM,1.13
same,relative viability,[4]; first compound 0.02 µM,1.18
same,relative viability,[4]; first compound 0.06325 µM,1.11
same,relative viability,[4]; first compound 0.2 µM,1.16
same,relative viability,[4]; first compound 0.6325 µM,0.887
same,relative viability,[4]; first compound 2 µM,0.89
same,relative viability,[12]; first compound 0.02 µM,1.09
same,relative viability,[12]; first compound 0.06325 µM,1.17
same,relative viability,[12]; first compound 0.2 µM,0.985
same,relative viability,[12]; first compound 0.6325 µM,0.818
same,relative viability,[12]; first compound 2 µM,0.652
same,relative viability,[5]; first compound 0.02 µM,0.993
same,relative viability,[5]; first compound 0.06325 µM,0.997
same,relative viability,[5]; first compound 0.2 µM,1.07
same,relative viability,[5]; first compound 0.6325 µM,0.967
same,relative viability,[5]; first compound 2 µM,1.04
same,relative viability,[6]; first compound 0.02 µM,1.1
same,relative viability,[6]; first compound 0.2 µM,1.11
same,relative viability,[6]; first compound 0.6325 µM,1.01
same,relative viability,[6]; first compound 2 µM,0.946
same,relative viability,[9]; first compound 0.02 µM,0.658
same,relative viability,[9]; first compound 0.06325 µM,0.628
same,relative viability,[9]; first compound 0.2 µM,0.673
same,relative viability,[9]; first compound 0.6325 µM,0.575
same,relative viability,[9]; first compound 2 µM,0.549
NCI-H522,relative viability,[13]; first compound 0.02 µM,1.11
same,relative viability,[13]; first compound 0.06325 µM,1.16
same,relative viability,[13]; first compound 0.2 µM,1.14
same,relative viability,[13]; first compound 0.6325 µM,1.15
same,relative viability,[13]; first compound 2 µM,1.11
same,relative viability,[14]; first compound 0.02 µM,1.34
same,relative viability,[14]; first compound 0.06325 µM,0.505
same,relative viability,[14]; first compound 2 µM,0.666
same,relative viability,[15]; first compound 0.06325 µM,0.501
same,relative viability,[15]; first compound 0.2 µM,0.524
same,relative viability,[15]; first compound 0.6325 µM,0.553
same,relative viability,[15]; first compound 2 µM,0.588
same,relative viability,[7]; first compound 0.02 µM,0.679
same,relative viability,[7]; first compound 0.06325 µM,0.554
same,relative viability,[7]; first compound 0.2 µM,0.626
same,relative viability,[7]; first compound 0.6325 µM,0.613
same,relative viability,[8]; first compound 0.02 µM,0.678
same,relative viability,[8]; first compound 0.2 µM,0.616
same,relative viability,[8]; first compound 0.6325 µM,0.577
same,relative viability,[8]; first compound 2 µM,0.675
same,relative viability,[9]; first compound 0.2 µM,0.641
same,relative viability,[9]; first compound 0.6325 µM,0.606
